Our source for the IC50 values is patent US11464770B2, “Anticancer pharmaceutical composition” (NATIONAL CANCER CENTER, priority 2016, dated 2022).

Like-named read-outs stand apart in the source and are kept apart here.

In one assay the test system is liver cancer cell lines. Nature of the assay: Cell based assay, cell viability (CellTiter-Glo), liver cancer cell lines. The note with it: Homo sapiens, SK-HEP1; SK-HEP-1 cell line. The protocol: (§1) Commercially available bladder cancer, prostate cancer, lung cancer, breast cancer, blood cancer, pancreatic cancer, colorectal cancer, brain cancer, neuroblastoma, melanoma, liver cancer, cervical carcinoma, ovarian cancer, renal cancer, and papilloma cell lines were each treated with trypsin-EDTA and cultured, followed by being seeded in each well of a 96 well plate. After 24 hours of treatment at constant temperature, the respective cells were treated with the candidate compound so that a final concentration became 0 to 2 μM. The treated cells were additionally cultured for 72 hours, and cell viability was measured by using an ATP detection method (CellTiter-Glo® Luminescent Cell Viability Assay, Promega).
For orientation: In ATP-based viability assays light output follows the ATP content of the culture.

Assay [1] concerns bladder cancer cell lines. Nature of the assay: Cell based assay, cell viability (CellTiter-Glo), bladder cancer cell lines. As to conditions: 72 hours treatment, 0 to 2 μM, CellTiter-Glo. On the procedure:
as §1

For another assay, the system named is melanoma cell lines. The assay can be described thus: Cell based assay, cell viability (CellTiter-Glo), melanoma cell lines. The note with it: Homo sapiens; LOX-IMVI cell line. The protocol: as §1
[2] abbreviates: 253J cells, read-out: IC50, bladder cancer cell line 253J.
Setting [3] is: 5637 cells, read-out: IC50, bladder cancer cell line 5637.
[4] abbreviates: Homo sapiens, T-24, T24 cells, read-out: IC50, bladder cancer cell line T24.
Where [5] appears, read: Homo sapiens, J82 cells, read-out: IC50, bladder cancer cell line J82.
The mark [6] stands for this setting: Homo sapiens, UMUC3, UM-UC-3 cells, read-out: IC50, bladder cancer cell line UM-UC-3.
The mark [7] stands for this setting: Homo sapiens, KU-19-19 cells, read-out: IC50, bladder cancer cell line KU-19-19.
Setting [8] is: MBT-2 cells, read-out: IC50, bladder cancer cell line MBT-2.

For the compound `CC(=O)c1c([S+]([O-])Cc2ccc(C(=O)c3ccccc3)cc2)[nH]c2c(Br)ccc(Cl)c2c1=O` (stereo not shown) [Compound 63, 3-acetyl-2-((4-benzoylbenzyl)sulfinyl)-8-bromo-5-chloroquinolin-4(1H)-one], the IC50 (in the assay on liver cancer cell lines; in assay [1] (setting [2]); in assay [1] (setting [3]); in assay [1] (setting [4]); in assay [1] (setting [5]); in the assay with melanoma cell lines) was greater than 2000 nM in each case.

In the case of `CC(=O)c1c(SCc2ccccc2)[nH]c2c(Br)ccc(Cl)c2c1=O` [Compound 3, 3-acetyl-2-(benzylthio)-8-bromo-5-chloroquinolin-4(1H)-one], the IC50 (in the assay on liver cancer cell lines; in assay [1] (setting [2]); in assay [1] (setting [3]); in assay [1] (setting [4]); in assay [1] (setting [6]); in assay [1] (setting [5])) was greater than 2000 nM each time. Further, the half-maximal inhibitory concentration (IC50) (in assay [1] (setting [7]); in assay [1] (setting [8]); in the assay on melanoma cell lines) was greater than 2000 nM throughout.

Consider `CC(=O)c1c([S+]([O-])C(C)c2ccccc2)[nH]c2c(Br)ccc(Cl)c2c1=O` (stereo not shown) [Compound 26, 3-acetyl-8-bromo-5-chloro-2-((1-phenylethyl)sulfinyl)quinolin-4(1H)-one], for which the concentration for half-maximal inhibition (IC50) was greater than 2000 nM in the assay on liver cancer cell lines; greater than 2000 nM in assay [1] (setting [2]); 1600 nM in assay [1] (setting [3]); greater than 2000 nM in assay [1] (setting [4]); greater than 2000 nM in assay [1] (setting [5]); greater than 2000 nM with melanoma cell lines.

Take `CC(=O)c1c(SCc2ccc([N+](=O)[O-])cc2)[nH]c2c(Br)ccc(Cl)c2c1=O` [Compound 32, 3-acetyl-8-bromo-5-chloro-2-((4-nitrobenzyl)thio)quinolin-4(1H)-one]: the IC50 (in the assay on liver cancer cell lines; in assay [1] (setting [2]); in assay [1] (setting [3]); in assay [1] (setting [4]); in assay [1] (setting [6]); in assay [1] (setting [5])) was greater than 2000 nM each time. For the same compound, the IC50 (in assay [1] (setting [7]); in assay [1] (setting [8]); in the assay with melanoma cell lines) was greater than 2000 nM each time.

Regarding `CC(=O)c1c(SC(C)C)[nH]c2c(Br)ccc(Cl)c2c1=O` [Compound 24, 3-acetyl-8-bromo-5-chloro-2-(isopropylthio)quinolin-4(1H)-one], the concentration for half-maximal inhibition (IC50) (with liver cancer cell lines; in assay [1] (setting [2]); in assay [1] (setting [3]); in assay [1] (setting [4]); in assay [1] (setting [6]); in assay [1] (setting [5])) was greater than 2000 nM throughout. In addition, the half-inhibitory concentration (IC50) (in assay [1] (setting [7]); in assay [1] (setting [8]); in the assay with melanoma cell lines) was greater than 2000 nM in each case.

As to `CC(=O)c1c(SCc2ccccc2)n(C(=O)c2ccc(Br)cc2)c2c(Br)ccc(Cl)c2c1=O` [Compound 23, 3-acetyl-2-(benzylthio)-8-bromo-1-(4-bromobenzoyl)-5-chloroquinolin-4(1H)-one], the IC50 (in the assay with liver cancer cell lines; in assay [1] (setting [2]); in assay [1] (setting [3]); in assay [1] (setting [4]); in assay [1] (setting [6]); in assay [1] (setting [5])) was greater than 2000 nM each time. The IC50 (in assay [1] (setting [7]); in assay [1] (setting [8]); in the assay on melanoma cell lines) was greater than 2000 nM throughout.

With `COCCNc1ccc(C[S+]([O-])c2[nH]c3c(Br)ccc(Cl)c3c(=O)c2C(C)=O)cn1` (stereo not shown) [Compound 105, 3-acetyl-8-bromo-5-chloro-2-(((6-((2-methoxyethyl)amino)pyridin-3-yl)methyl)sulfinyl)quinolin-4(1H)-one], the IC50 (in the assay with liver cancer cell lines; in assay [1] (setting [2]); in assay [1] (setting [3]); in assay [1] (setting [4]); in assay [1] (setting [5]); in the assay on melanoma cell lines) was greater than 2000 nM each time.

With `CC(=O)c1c([S+]([O-])Cc2ccc(S(F)(F)(F)(F)F)cc2)[nH]c2c(Br)ccc(Cl)c2c1=O` (stereo not shown) [Compound 68, 3-acetyl-8-bromo-5-chloro-2-((4-(pentafluoro-16-sulfanyl)benzyl)sulfinyl)quinolin-4(1H)-one], the IC50 came to 860 nM in the assay with liver cancer cell lines; 970 nM in assay [1] (setting [2]); 1460 nM in assay [1] (setting [3]); 1470 nM in assay [1] (setting [4]); 1110 nM in assay [1] (setting [6]); 1490 nM in assay [1] (setting [5]). The figures for the 50% inhibitory concentration (IC50) (in assay [1] (setting [7]); in assay [1] (setting [8]); in the assay with melanoma cell lines) were 1250 nM, 1070 nM and 960 nM, respectively.

As for `CSc1[nH]c2ccc(F)cc2c(=O)c1C(C)=O` [Compound 8, 1-(6-fluoro-4-hydroxy-2-(methylthio)quinolin-3-yl)ethan-1-one], the concentration for half-maximal inhibition (IC50) (in the assay with liver cancer cell lines; in assay [1] (setting [2]); in assay [1] (setting [3]); in assay [1] (setting [4]); in assay [1] (setting [6]); in assay [1] (setting [5])) was greater than 2000 nM each time. Besides, the IC50 (in assay [1] (setting [7]); in assay [1] (setting [8]); in the assay on melanoma cell lines) was greater than 2000 nM throughout.

For `CC(=O)c1c([S+]([O-])Cc2cccc(S(F)(F)(F)(F)F)c2)[nH]c2c(Br)ccc(Cl)c2c1=O` (stereo not shown) [Compound 77, 3-acetyl-8-bromo-5-chloro-2-((3-(pentafluoro--sulfanyl)benzyl)sulfinyl)quinolin-4(1H)-one], the IC50 in the assay with liver cancer cell lines came out at 1090 nM; in assay [1] (setting [2]), 900 nM; in assay [1] (setting [3]), 1680 nM; in assay [1] (setting [4]), 1510 nM; in assay [1] (setting [5]), 1620 nM; in the assay with melanoma cell lines, 1160 nM.

For `CC(=O)c1c([S+]([O-])Cc2ccc(SC(F)(F)F)cc2)[nH]c2c(Cl)ccc(Cl)c2c1=O` (stereo not shown) [Compound 79, 3-acetyl-5,8-dichloro-2-((4-((trifluoromethyl)thio)benzyl)sulfinyl)quinolin-4(1H)-one], the half-inhibitory concentration (IC50) (in the assay on liver cancer cell lines; in assay [1] (setting [2]); in assay [1] (setting [3]); in assay [1] (setting [4]); in assay [1] (setting [5]); with melanoma cell lines) was greater than 2000 nM in each case.

For the compound `CC(=O)c1c(SCc2cc(F)cc(F)c2)[nH]c2c(Br)ccc(Cl)c2c1=O` [Compound 45, 3-acetyl-8-bromo-5-chloro-2-((3,5-difluorobenzyl)thio)quinolin-4(1H)-one], the half-inhibitory concentration (IC50) (in the assay with liver cancer cell lines; in assay [1] (setting [2]); in assay [1] (setting [3]); in assay [1] (setting [4]); in assay [1] (setting [6]); in assay [1] (setting [5])) was greater than 2000 nM in each case. Also, the IC50 (in assay [1] (setting [7]); in assay [1] (setting [8]); with melanoma cell lines) was greater than 2000 nM in each case.

As to `CC(=O)c1c([S+]([O-])c2ccc(Br)cc2)[nH]c2c(Br)ccc(Cl)c2c1=O` (stereo not shown) [Compound 17, 3-acetyl-8-bromo-2-((4-bromophenyl)sulfinyl)-5-chloroquinolin-4(1H)-one], the IC50 (in the assay with liver cancer cell lines; in assay [1] (setting [2]); in assay [1] (setting [3]); in assay [1] (setting [4]); in assay [1] (setting [5]); with melanoma cell lines) was greater than 2000 nM each time.

On to `CC(=O)c1c([S+]([O-])Cc2ccccc2)nc2c(Br)ccc(Cl)c2c1O` (stereo not shown) [Compound 4], for which the concentration for half-maximal inhibition (IC50) with liver cancer cell lines is 1130 nM; in assay [1] (setting [2]) it was 1000 nM; in assay [1] (setting [3]) it was 1910 nM; in assay [1] (setting [4]) it was 1310 nM; in assay [1] (setting [5]), greater than 2000 nM; in the assay on melanoma cell lines, 1090 nM.

In the case of `CC(=O)c1c(SCc2cc(Cl)ccc2Cl)[nH]c2c(Br)ccc(Cl)c2c1=O` [Compound 43, 3-acetyl-8-bromo-5-chloro-2-((2,5-dichlorobenzyl)thio)quinolin-4(1H)-one], the concentration for half-maximal inhibition (IC50) (in the assay with liver cancer cell lines; in assay [1] (setting [2]); in assay [1] (setting [3]); in assay [1] (setting [4]); in assay [1] (setting [6]); in assay [1] (setting [5])) was greater than 2000 nM each time. In addition, the IC50 (in assay [1] (setting [7]); in assay [1] (setting [8]); in the assay with melanoma cell lines) was greater than 2000 nM in each case.

For `CC(=O)c1c([S+](C)[O-])n(S(=O)(=O)C(F)(F)F)c2c(Br)ccc(Cl)c2c1=O` (stereo not shown) [Compound 36, 3-acetyl-8-bromo-5-chloro-2-(methylsulfinyl)-1-((trifluoromethyl)sulfonyl)quinolin-4(1H)-one], the half-maximal inhibitory concentration (IC50) (in the assay on liver cancer cell lines; in assay [1] (setting [2]); in assay [1] (setting [3]); in assay [1] (setting [4]); in assay [1] (setting [6]); in assay [1] (setting [5])) was greater than 2000 nM each time. In addition, the values for the IC50 (in assay [1] (setting [7]); in assay [1] (setting [8]); with melanoma cell lines) were greater than 2000 nM, 1280 nM and greater than 2000 nM, respectively.

On to `CC(=O)c1c([S+]([O-])Cc2ccc(-n3cccn3)nc2)[nH]c2c(Br)ccc(Cl)c2c1=O` (stereo not shown) [Compound 99, 2-(((6-(1H-pyrazol-1-yl)pyridin-3-yl)methyl)sulfinyl)-3-acetyl-8-bromo-5-chloroquinolin-4(1H)-one], for which the half-inhibitory concentration (IC50) is 1060 nM in the assay on liver cancer cell lines; 800 nM in assay [1] (setting [2]); 1620 nM in assay [1] (setting [3]); 850 nM in assay [1] (setting [4]); 1500 nM in assay [1] (setting [5]); 870 nM in the assay on melanoma cell lines.

Turning to `CC(=O)c1c([S+]([O-])Cc2ccc(C#N)s2)[nH]c2c(Br)ccc(Cl)c2c1=O` (stereo not shown) [Compound 98, 5-(((3-acetyl-8-bromo-5-chloro-4-oxo-1,4-dihydroquinolin-2-yl)sulfinyl)methyl)thiophene-2-carbonitrile], the IC50 was 1200 nM in the assay on liver cancer cell lines; greater than 2000 nM in assay [1] (setting [3]); 1320 nM in assay [1] (setting [4]); greater than 2000 nM in assay [1] (setting [5]); 1340 nM with melanoma cell lines.

In the case of `CC(=O)c1c([S+]([O-])CN2C(=O)c3ccccc3C2=O)[nH]c2c(Cl)ccc(Cl)c2c1=O` (stereo not shown) [Compound 90, 2-(((3-acetyl-5,8-dichloro-4-oxo-1,4-dihydroquinolin-2-yl)sulfinyl)methyl)isoindoline-1,3-dione], the 50% inhibitory concentration (IC50) (in the assay with liver cancer cell lines; in assay [1] (setting [2]); in assay [1] (setting [3]); in assay [1] (setting [4]); in assay [1] (setting [6]); in assay [1] (setting [5])) was greater than 2000 nM in each case. The IC50 (in assay [1] (setting [7]); in assay [1] (setting [8]); in the assay with melanoma cell lines) was greater than 2000 nM each time.

For the compound `CC(=O)c1c([S+]([O-])Cc2ccc(C(F)(F)F)nc2C)[nH]c2c(Br)ccc(Cl)c2c1=O` (stereo not shown) [Compound 102, 3-acetyl-8-bromo-5-chloro-2-(((2-methyl-6-(trifluoromethyl)pyridin-3-yl)methyl)sulfinyl)quinolin-4(1H)-one], the IC50 was greater than 2000 nM with liver cancer cell lines; greater than 2000 nM in assay [1] (setting [3]); 1030 nM in assay [1] (setting [4]); greater than 2000 nM in assay [1] (setting [5]); 860 nM in the assay on melanoma cell lines.

In general, IC50 refers to the concentration that gives 50% inhibition.
